These results are taken from US20260055161A1, “PSCA CAR-T CELLS” (Regeneron Pharmaceuticals, Inc., priority 2018, published 2026).

The subject of one data set is peripheral lymphocytes. The note with it: 1 patient with increased IL-7 and IL-15 levels after lymphodepletion. As for the experimental part: FIG. 8 provides a table showing patient demographics and clinical characteristics. *Cytoxan 1 g/m^2 by IV infusion on Day −3; † PSCA (copies per 10^6 copies hACTB) was measured at screening.
For data set [1], the system named is serum cytokines and chemokines (IP-10, TNF-α, MCP-1, MIP-1α, MIP-1β). The experiment in a line: peripheral cytokine profiles over time. Format: in vivo, human. How it is done:
Cohort 3 (1.25×10^6 cells/kg) was the initial starting cohort for cell dose escalation decisions in Part 1 when PSCA CAR-T cells are administered with rimiducid. Cohorts of 3 subjects were treated with escalating doses of PSCA CAR-T cells on Day 0 with a fixed, single dose of rimiducid (0.4 mg/kg) on Day 7. The doses of PSCA CAR-T cells are detailed in FIG. 8.

The conditions of data set [2]: healthy volunteers; cited from earlier work.
For another data set, the system named is cells. Kind of data set: AP1903 amount needed in vitro for effective signaling of cells. Format: cell-based.

As to `O=P1(N(CCCl)CCCl)NCCCO1` (stereo not drawn) [cyclophosphamide], the “peripheral lymphocyte count, of the starting level” value in the data set with peripheral lymphocytes worked out at 31%.

For `CC[C@H](C(=O)N1CCCC[C@H]1C(=O)O[C@H](CCc1ccc(OC)c(OC)c1)c1cccc(OCC(=O)NCCNC(=O)COc2cccc([C@@H](CCc3ccc(OC)c(OC)c3)OC(=O)[C@@H]3CCCCN3C(=O)[C@@H](CC)c3cc(OC)c(OC)c(OC)c3)c2)c1)c1cc(OC)c(OC)c(OC)c1` (relative stereo) [rimiducid, 2-Piperidinecarboxylic acid, 1-[(2S)-1-oxo-2-(3,4,5-trimethoxyphenyl)butyl]-, 1,2-ethanediylbis[imino(2-oxo-2,1-ethanediyl)oxy-3,1-phenylene[(1R)-3-(3,4-dimethoxyphenyl)propylidene]]ester, [2S-[1(R*),2R*[S*[S*[1(R*),2R*]]]]]-(9C1)], the “serum cytokines (IP-10, TNF-α)” value in data set [1] (8 patients that received rimiducid after CAR-T cells) is “all had elevated cytokines (IP-10, TNF-α) correlated with cell expansion”. Further, the “chemokine levels (MCP-1, MIP-1α, MIP-1β)” value in data set [1] (many patients, after rim infusion) is “Increased chemokine levels”. In addition, the safety entry in data set [2] was “safe”. Also, the “amount needed in vitro for effective signaling of cells” value in the data set with cells was 10 to 100 nM. In the data set with cells (MW: 1412 Da), the “amount needed for effective signaling, equivalent” value lay in the range of 14 to 140 µg/L.
